In brackets after ≈: the same amount, converted by molar mass. Read-outs that look alike come from different tables or passages of the source. Bounds are passed on as bounds.

For data set [1], the system named is HeLa. The experiment in a line: MTT-based proliferation assay, HeLa. The note with it: 48 h. The format is cell-based, human. The source says: (§1) 7. Cytotoxicity against Mammalian Cells
(§2) 7.1. Cell viability assays for Moxi, C-Moxi and Ru-s4
(§3) Dulbecco’s Modified Eagle’s Medium (DMEM: [+] 4.5 g/L D-Glucose, L-Glutamine; [-]
(§4) Pyruvate), containing 10% fetal calf serum, 1% penicillin and streptomycin, was used
(§5) as growth medium for HeLa cells. DMEM ([+] 1 g/L D-Glucose; [+] Pyruvate),
(§6) containing 10% fetal calf serum, 1% penicillin and streptomycin, was respectively used
(§7) for GM5657 cells. HeLa and GM5657 cells were detached from the wells with trypsin
(§8) and EDTA, harvested by centrifugation and resuspended in the respective cell culture
(§9) medium. The assays were carried out on 96 well plates with a density of 6000 cells
(§10) per well. After 24 h of incubation at 37°C and 10% CO2, the cells were treated with
(§11) Moxi, C-Moxi and Ru-s4 (constant DMSO concentrations of 0.5%) with a final volume
(§12) of 200 µL per well. For a negative control, one series of cells were only treated with
(§13) 0.5% DMSO, and for a positive control, one series was treated with cisplatin. After 48
(§14) h of incubation, 50 µL PBS containing MTT (2.5 mg/mL) was added. The cells were
(§15) incubated for an additional 2 h. Afterwards, the medium was removed, and 200 µL of
(§16) DMSO were added. The formazan crystal absorption was measured at 550 nm, using
(§17) a reference wavelength of 650 nm. Each assay was carried out in triplicates (three
(§18) independent experiments) for each cell line, Table S3.

Data set [2] relates to GM5657. The experiment in a line: MTT-based proliferation assay, GM5657. It is filed as cell-based, human. The note with it: 48 h.
Excerpt: as §1, §2, §3, §4, §5, §6, §7, §8, §9, §10, §11, §12, §13, §14, §15, §16, §17, §18
(In general: Tetrazolium dyes change colour on reduction, which living cells bring about.)

The test system of data set [3] is E. coli K12 (BW25113). Briefly: antibacterial activity (dosage-response, 24 h) under iron-limited, micro-aerobic conditions.
The subject of data set [4] is E. coli K12 (BW25113). The experiment in a line: prodrug uptake assay (incubation, HPLC of extracellular and wash samples). It is filed as cell-based, Escherichia coli.
Data set [5] is described as follows: solubility as observed in the assays. It is filed as physicochemical.
Data set [6] has as its system E. coli K12 (BW25113). Briefly: catalyst-prodrug co-addition growth assay (24 h) with siderophore controls. The note with it: without C‐moxi, MHII + 200 μM bpy, 2 % O2, 24 h.
In data set [7] the test system is E. coli K12 (BW25113). The experiment in a line: effect of catalyst-siderophore conjugates on bacterial growth (dose-response, 24 h). As to conditions: at 10 μM, MHII + 200 μM bpy, 2 % O2, 24 h.
Data set [8] deals with E. coli K12 (BW25113). The experiment in a line: prodrug incubation experiment: C-moxi preloading, washing, catalyst addition (18 h). The note with it: substrate at upper nontoxic concentration.
Where [9] appears, read: Mean of three runs, tested range 0.05–100 μM.
Where [10] appears, read: MHII + 200 μM bpy, 2 % O2, 37 °C, 24 h.
The mark [11] stands for this setting: C-moxi 10 µM, relative to 'no cell' controls.

As a reminder, the IC50 is the concentration needed to halve the response being measured. A high value points to weaker potency in that assay. With `N.N.[Cl][Pt][Cl]` [Cisplatin, cisplatin], the half-maximal inhibitory concentration (IC50) in data set [1] (setting [9]) amounted to 17 µM; in data set [1] (Run 1), 12.6 µM; in data set [1] (Run 2) it was 20.6 µM; in data set [1] (Run 3), 17.8 µM; in data set [2] (setting [9]), 18.8 µM; in data set [2] (Run 1) it was 19.5 µM. For the same molecule, the figures for the concentration for half-maximal inhibition (IC50) in data set [2] (Run 2) and in data set [2] (Run 3) were 18 µM and 18.9 µM, respectively.
As usually defined, the solubility is the dissolved amount per volume that the medium holds. As for `C=CCOC(=O)c1cn(C2CC2)c2c(OC)c(N3C[C@@H]4CCCN[C@@H]4C3)c(F)cc2c1=O` [C‐moxi], the “concentrations at which no antibacterial activity is seen” value in data set [3] (setting [10]) was less than 10 µM. Moreover, the “times less toxic than the parent antibacterial Moxi” value in data set [3] (bacterial assays, E. coli K12) was roughly 300. Further, the Remainder in data set [4] (C-moxi 10 µM, 100 % minus extracellular and wash) was 16.4%. Besides, the Uptake in data set [4] (C-moxi 10 µM, incubation OD600 0.1) worked out at 3.31 nmol OD600-1. In addition, in data set [4] (setting [11]), the Extracellular is on record as 82.7%. Moreover, in data set [4] (setting [11]), the Wash was determined as 0.9%. For the same molecule, the “internalisation (bacterial uptake) of prodrug” value in data set [4] (C‐moxi added at 10 μM, 15 min at 37 °C, exponential growth, iron-limited, micro-aerobic) turned out to be 16%. Also, the IC50 in data set [1] (setting [9]) was greater than 100 µM; in data set [1] (Run 2), greater than 100 µM; in data set [1] (Run 3), greater than 100 µM; in data set [1] (Homo sapiens, Run 1), greater than 100 µM; in data set [2] (setting [9]) it was greater than 100 µM; in data set [2] (Run 2), greater than 100 µM. The IC50 in data set [2] (Run 3) is greater than 100 µM; in data set [2] (Homo sapiens, Run 1), greater than 100 µM. Besides, in data set [5] (bacterial growth assay medium, read-out: solubility limit), the solubility was determined as 500 µM (≈ 221 µg/mL).
Take `CC(=O)N(O)CCCCCNC(=O)CCC(=O)N(O)CCCCCNC(=O)CCC(=O)N(O)CCCCCN` [DFO, desferrioxamine B]: the “effect on growth relative to the no addition control, substance alone” value in data set [6] is recorded as “does not improve growth”.
`O=C(O)c1cccc(O)c1O` [DHB, 2,3‐dihydroxybenzoic acid]: in data set [6], the “effect on growth relative to the no addition control, substance alone” value is recorded as “improve growth”.
Turning to `[Cl][Fe]([Cl])[Cl]` [FeCl3], the “change of overall growth compared to no addition” value in data set [7] is given as “tenfold”.
Take `COc1c(N2C[C@@H]3CCCN[C@@H]3C2)c(F)cc2c(=O)c(C(=O)O)cn(C3CC3)c12` [Moxi, moxifloxacin]: the “concentrations at which no antibacterial activity is observed” value in data set [3] (setting [10]) is on record as less than 10 nM. In addition, the “difference between C‐moxi and DMSO incubations (in words)” value in data set [8] is “no significant difference between incubations”. The IC50 in data set [1] (setting [9]) was greater than 100 µM; in data set [1] (Run 2), greater than 100 µM; in data set [1] (Run 3), greater than 100 µM; in data set [1] (Homo sapiens, Run 1) it was greater than 100 µM; in data set [2] (setting [9]), greater than 100 µM; in data set [2] (Run 2), greater than 100 µM. For the same molecule, the IC50 was greater than 100 µM in data set [2] (Run 3) and greater than 100 µM in data set [2] (Homo sapiens, Run 1).
As to `C=CCOC(=O)N1CCC[C@H]2CN(c3c(F)cc4c(=O)c(C(=O)O)cn(C5CC5)c4c3OC)C[C@H]21` [N‐moxi], in data set [3] (setting [10]), the “concentrations at which no antibacterial activity is seen” value was less than 10 µM. In addition, in data set [5] (10 % DMSO in aqueous MOPS buffer, HPLC kinetics), the solubility entry is reported as “poor solubility”.
With `O=C(NCCCC[C@H](NC(=O)c1cccc(O)c1O)C(=O)O)c1cccc(O)c1O` [azotochelin], the “effect on growth relative to the no addition control, substance alone” value in data set [6] is “improve growth”.
Same read-out and setting: as for `O=C(O)CC(O)(CC(=O)O)C(=O)O` [citrate], the entry is “improve growth”.

Source of the values: paper PMC10108276, “Siderophore‐Linked Ruthenium Catalysts for Targeted Allyl Ester Prodrug Activation within Bacterial Cells” (Chemistry (Weinheim an Der Bergstrasse, Germany), 2022).
